Reference: US20230092890A1, “1, 3, 4-Oxadiazole derivative compounds as histone deacetylase 6 inhibitor, and the pharmaceutical composition comprising the same” (Chong Kun Dang Pharmaceutical Corp., priority 2019, published 2023)

Columns and labels:
HDAC6 human recombinant = target: T1, HDAC6 human recombinant (Homo sapiens, UniProt Q9UBN7); assay: HDAC enzyme activity inhibition (in vitro), HDAC6 assay; type: biochemical; settings: samples at 0.1, 1, 10, 100 and 1000 nM; 37° C. 60 minutes; fluorescence Ex 390, Em 460; read-out: HDAC6 IC50
T1 construct: purchased Calbiochem 382180
T1 sequence (Q9UBN7 1-1215): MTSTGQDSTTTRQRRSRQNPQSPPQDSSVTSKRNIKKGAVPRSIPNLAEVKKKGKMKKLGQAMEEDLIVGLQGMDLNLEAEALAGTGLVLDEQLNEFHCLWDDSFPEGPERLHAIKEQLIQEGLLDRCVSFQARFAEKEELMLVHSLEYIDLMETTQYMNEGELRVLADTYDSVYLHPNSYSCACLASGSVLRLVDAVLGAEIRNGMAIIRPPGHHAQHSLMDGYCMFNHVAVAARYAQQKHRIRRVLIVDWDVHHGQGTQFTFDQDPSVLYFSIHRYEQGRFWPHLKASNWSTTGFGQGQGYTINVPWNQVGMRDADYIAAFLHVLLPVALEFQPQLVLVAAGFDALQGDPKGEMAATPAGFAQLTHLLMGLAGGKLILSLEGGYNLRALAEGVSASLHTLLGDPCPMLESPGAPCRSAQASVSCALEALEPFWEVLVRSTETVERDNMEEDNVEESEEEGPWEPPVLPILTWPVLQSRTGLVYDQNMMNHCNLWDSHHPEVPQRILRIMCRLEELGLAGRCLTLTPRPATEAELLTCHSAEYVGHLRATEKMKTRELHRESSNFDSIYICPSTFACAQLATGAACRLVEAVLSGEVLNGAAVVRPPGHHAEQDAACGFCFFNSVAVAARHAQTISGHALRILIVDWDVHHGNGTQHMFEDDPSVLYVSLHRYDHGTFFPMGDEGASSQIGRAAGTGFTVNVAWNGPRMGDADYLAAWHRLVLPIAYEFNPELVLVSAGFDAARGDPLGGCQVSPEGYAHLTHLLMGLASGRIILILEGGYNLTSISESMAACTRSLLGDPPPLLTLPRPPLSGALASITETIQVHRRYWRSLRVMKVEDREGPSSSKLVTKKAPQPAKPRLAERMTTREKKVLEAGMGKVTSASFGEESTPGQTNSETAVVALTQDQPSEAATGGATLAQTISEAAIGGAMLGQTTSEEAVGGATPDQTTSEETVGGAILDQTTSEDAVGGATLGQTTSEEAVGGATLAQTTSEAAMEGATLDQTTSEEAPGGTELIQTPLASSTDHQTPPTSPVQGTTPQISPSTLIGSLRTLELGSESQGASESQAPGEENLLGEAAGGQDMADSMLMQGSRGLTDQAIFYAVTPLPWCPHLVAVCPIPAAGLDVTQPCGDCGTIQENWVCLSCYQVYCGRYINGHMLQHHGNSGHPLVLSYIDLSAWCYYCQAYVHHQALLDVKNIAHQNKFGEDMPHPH
How it was run: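 HDAC6 human recombinant enzyme with fluorimetric substrate; […]. Reaction 60 min at 37° C, then developer 30 min at 37° C; fluorescence read at Ex 390/Em 460.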

HDAC1 = target: T2, HDAC1 (Homo sapiens, UniProt Q13547); assay: HDAC enzyme activity inhibition (in vitro), HDAC1 Fluorimetric Drug Discovery Assay Kit; type: biochemical; settings: samples at 100, 1000 and 10000 nM; 37° C. 60 minutes; fluorescence Ex 390, Em 460; read-out: HDAC1 IC50
T2 construct: purchased Enzolifesciences BML-AK511
How it was run: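 HDAC1 was tested at 100, 1000 and 10000 nM and recombinant human HDAC6 at 0.1, 1, 10, 100 and 1000 nM. Enzyme reactions ran 60 min at 37° C, then developer was added for 30 min at 37° C, and fluorescence (Ex 390, Em 460) was read.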

T2 sequence (Q13547 whole entry): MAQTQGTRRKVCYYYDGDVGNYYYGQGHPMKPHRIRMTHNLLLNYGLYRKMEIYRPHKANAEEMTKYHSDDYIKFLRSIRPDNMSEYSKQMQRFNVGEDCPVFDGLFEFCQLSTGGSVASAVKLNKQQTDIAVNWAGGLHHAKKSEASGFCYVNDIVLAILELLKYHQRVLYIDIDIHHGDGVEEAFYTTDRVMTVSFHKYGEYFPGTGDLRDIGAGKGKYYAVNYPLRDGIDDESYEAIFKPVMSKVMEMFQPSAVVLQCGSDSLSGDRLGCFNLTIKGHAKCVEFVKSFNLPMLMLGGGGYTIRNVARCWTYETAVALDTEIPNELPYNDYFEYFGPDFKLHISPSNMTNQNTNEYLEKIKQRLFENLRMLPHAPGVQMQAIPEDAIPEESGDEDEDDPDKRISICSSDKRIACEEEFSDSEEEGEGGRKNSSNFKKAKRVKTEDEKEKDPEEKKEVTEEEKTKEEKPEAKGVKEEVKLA

Compound	IC50 (HDAC6 human recombinant) [nM]	IC50 (HDAC1) [nM]
CN1CCC(n2c(=O)n(Cc3ccc(-c4nnc(C(F)F)o4)cc3F)c3cc(F)c(F)cc32)CC1 [Compound 93, 1-(4-(5-(difluoromethyl)-1,3,4-oxadiazole-2-yl)-2-fluorobenzyl)-5,6-difluoro-3-(1-methylpiperidine-4-yl)-1,3-dihydro-2H-benzo[d]imidazole-2-one]	40	> 10000
O=c1n(Cc2ccc(-c3nnc(C(F)F)o3)cc2F)c2cc(F)c(F)cc2n1C1CCN(C2COC2)CC1 [Compound 94, 1-(4-(5-(difluoromethyl)-1,3,4-oxadiazole-2-yl)-2-fluorobenzyl)-5,6-difluoro-3-(1-(oxetan-3-yl)piperidine-4-yl)-1,3-dihydro-2H-benzo[d]imidazole-2-one]	45	> 10000
CN1CCC(n2c(=O)n(Cc3ccc(-c4nnc(C(F)F)o4)cc3)c3cc(F)c(F)cc32)CC1 [Compound 95, 1-(4-(5-(difluoromethyl)-1,3,4-oxadiazole-2-yl)benzyl)-5,6-difluoro-3-(1-methylpiperidine-4-yl)-1,3-dihydro-2H-benzo[d]imidazole-2-one]	51	> 10000
O=c1n(Cc2ccc(-c3nnc(C(F)F)o3)cc2)c2cc(F)c(F)cc2n1C1CCN(C2COC2)CC1 [Compound 96, 1-(4-(5-(difluoromethyl)-1,3,4-oxadiazole-2-yl)benzyl)-5,6-difluoro-3-(1-(oxetan-3-yl)piperidine-4-yl)-1,3-dihydro-2H-benzo[d]imidazole-2-one]	36	> 10000
CN1CCC(n2c(=O)n(Cc3ccc(-c4nnc(C(F)F)o4)cn3)c3ccc(Cl)cc32)CC1 [Compound 97, 5-chloro-1-((5-(5-(difluoromethyl)-1,3,4-oxadiazole-2-yl)pyridine-2-yl)methyl)-3-(1-methylpiperidine-4-yl)-1,3-dihydro-2H-benzo[d]imidazole-2-one]	32	> 10000
O=c1n(Cc2ccc(-c3nnc(C(F)F)o3)cn2)c2ccc(Cl)cc2n1C1CCN(C2COC2)CC1 [Compound 98, 5-chloro-1-((5-(5-(difluoromethyl)-1,3,4-oxadiazole-2-yl)pyridine-2-yl)methyl)-3-(1-(oxetan-3-yl)piperidine-4-yl)-1,3-dihydro-2H-benzo[d]imidazole-2-one]	28	> 10000
CN1CCC(n2c(=O)n(Cc3ccc(-c4nnc(C(F)F)o4)cc3)c3ccc(Cl)cc32)CC1 [Compound 99, 5-chloro-1-(4-(5-(difluoromethyl)-1,3,4-oxadiazole-2-yl)benzyl)-3-(1-methylpiperidine-4-yl)-1,3-dihydro-2H-benzo[d]imidazole-2-one]	37	> 10000
O=c1n(Cc2ccc(-c3nnc(C(F)F)o3)cc2)c2ccc(Cl)cc2n1C1CCN(C2COC2)CC1 [Compound 100, 5-chloro-1-(4-(5-(difluoromethyl)-1,3,4-oxadiazole-2-yl)benzyl)-3-(1-(oxetan-3-yl)piperidine-4-yl)-1,3-dihydro-2H-benzo[d]imidazole-2-one]	39	> 10000
CN1CCC(n2c(=O)n(Cc3ccc(-c4nnc(C(F)F)o4)cc3F)c3ccc(Cl)cc32)CC1 [Compound 101, 5-chloro-1-(4-(5-(difluoromethyl)-1,3,4-oxadiazole-2-yl)-2-fluorobenzyl)-3-(1-methylpiperidine-4-yl)-1,3-dihydro-2H-benzo[d]imidazole-2-one]	44	> 10000
O=c1n(Cc2ccc(-c3nnc(C(F)F)o3)cc2F)c2ccc(Cl)cc2n1C1CCN(C2COC2)CC1 [Compound 102, 5-chloro-1-(4-(5-(difluoromethyl)-1,3,4-oxadiazole-2-yl)-2-fluorobenzyl)-3-(1-(oxetan-3-yl)piperidine-4-yl)-1,3-dihydro-2H-benzo[d]imidazole-2-one]	59	> 10000
CN1CCC(n2c(=O)n(Cc3ccc(-c4nnc(C(F)F)o4)cc3F)c3ncccc32)CC1 [Compound 103, 3-(4-(5-(difluoromethyl)-1,3,4-oxadiazole-2-yl)-2-fluorobenzyl)-1-(1-methylpiperidine-4-yl)-1,3-dihydro-2H-imidazo[4,5-b]pyridine-2-one]	342	> 10000
O=c1n(Cc2ccc(-c3nnc(C(F)F)o3)cc2F)c2ncccc2n1C1CCN(C2COC2)CC1 [Compound 104, 3-(4-(5-(difluoromethyl)-1,3,4-oxadiazole-2-yl)-2-fluorobenzyl)-1-(1-(oxetan-3-yl)piperidine-4-yl)-1,3-dihydro-2H-imidazo[4,5-b]pyridine-2-one]	283	> 10000
CN1CCC(n2c(=O)n(Cc3ccc(-c4nnc(C(F)F)o4)cc3)c3ncccc32)CC1 [Compound 105, 3-(4-(5-(difluoromethyl)-1,3,4-oxadiazole-2-yl)benzyl)-1-(1-methylpiperidine-4-yl)-1,3-dihydro-2H-imidazo[4,5-b]pyridine-2-one]	640	> 10000
O=c1n(Cc2ccc(-c3nnc(C(F)F)o3)cc2)c2ncccc2n1C1CCN(C2COC2)CC1 [Compound 106, 3-(4-(5-(difluoromethyl)-1,3,4-oxadiazole-2-yl)benzyl)-1-(1-(oxetan-3-yl)piperidine-4-yl)-1,3-dihydro-2H-imidazo[4,5-b]pyridine-2-one]	391	> 10000
CN1CCC(n2c(=O)n(Cc3ccc(-c4nnc(C(F)F)o4)cn3)c3ncccc32)CC1 [Compound 107, 3-((5-(5-(difluoromethyl)-1,3,4-oxadiazole-2-yl)pyridine-2-yl)methyl)-1-(1-methylpiperidine-4-yl)-1,3-dihydro-2H-imidazo[4,5-b]pyridine-2-one]	174	> 10000
O=c1n(Cc2ccc(-c3nnc(C(F)F)o3)cn2)c2ncccc2n1C1CCN(C2COC2)CC1 [Compound 108]	148	> 10000
O=c1n(Cc2ccc(-c3nnc(C(F)(F)F)o3)cn2)c2ccccc2n1C1CC2(COC2)C1 [Compound 109, 1-(2-oxaspiro[3.3]heptane-6-yl)-3-((5-(5-(trifluoromethyl)-1,3,4-oxadiazole-2-yl)pyridine-2-yl)methyl)-1,3-dihydro-2H-benzo[d]imidazole-2-one]	623	> 10000
Cn1c(=O)n(Cc2ccc(-c3nnc(C(F)F)o3)cc2F)c2cc(-c3cccnc3)ccc21 [Compound 110, 3-(4-(5-(difluoromethyl)-1,3,4-oxadiazole-2-yl)-2-fluorobenzyl)-1-methyl-5-(pyridine-3-yl)-1,3-dihydro-2H-benzo[d]imidazole-2-one]	234	> 10000
Cn1c(=O)n(Cc2ccc(-c3nnc(C(F)F)o3)cc2F)c2cc(-c3ccncc3)ccc21 [Compound 111, 3-(4-(5-(difluoromethyl)-1,3,4-oxadiazole-2-yl)-2-fluorobenzyl)-1-methyl-5-(pyridine-4-yl)-1,3-dihydro-2H-benzo[d]imidazole-2-one]	322	> 10000
Cn1c(=O)n(Cc2ccc(-c3nnc(C(F)F)o3)cc2F)c2cc(-c3cccc(F)c3)ccc21 [Compound 112, 3-(4-(5-(difluoromethyl)-1,3,4-oxadiazole-2-yl)-2-fluorobenzyl)-5-(3-fluorophenyl)-1-m ethyl-1,3-dihydro-2H-benzo[d]imidazole-2-one]	864	> 10000
CN1CCC(n2c(=O)n(Cc3ccc(-c4nnc(C(F)F)o4)cc3F)c3cc(F)c(Br)cc32)CC1 [Compound 113, 5-bromo-1-(4-(5-(difluoromethyl)-1,3,4-oxadiazole-2-yl)-2-fluorobenzyl)-6-fluoro-3-(1-methylpiperidine-4-yl)-1,3-dihydro-2H-benzo[d]imidazole-2-one]	65	> 10000
